From ChEMBL document CHEMBL3885861, “Open TG-GATES”

Organism: Rattus norvegicus
Assay: Open TG-GATES - Regimen: Single
Format: toxicity, organism-based, Sprague-Dawley
Parameters: regimen Single, gender Male, age 6 weeks
Details: in vivo, ip, 150 mg/kg, route intraperitoneal injection, dose level Low; for APTT / Bas / Eos / Fbg / Hb / Ht / Lym / MCH / MCHC / MCV / Mono / Neu / PT / Plat / RBC / Ret / WBC: tissue Blood; for KIDNEY_L / KIDNEY_R / KIDNEY_TOTAL: tissue Kidney; for LIVER: tissue Liver; for A/G / ALP / ALT / AST / BUN / CRE / Ca / Cl / DBIL / GLC / IP / K / LDH / Na / PL / RALB / TBIL / TC / TG / TP / gamma-GTP: tissue Plasma

`CCCCS(=N)(=O)CCC(N)C(=O)O` (configuration not stated) [BUTHIONINE SULFOXIMINE] gave a TERMINAL_BW (3 h) of 216.6 g, an APTT (3 h) of 16.5 s and a Bas (3 h) of 0%. It also gave an Eos (3 h) of 0.8%, a Fbg (3 h) of 216.4 mg/dL and a Hb (3 h) of 13 g/dL. The Ht (3 h) was 40%, the Lym (3 h) was 74.8% and the MCH (3 h) was 21.5 pg. It also gave an MCHC (3 h) of 32.6%, an MCV (3 h) of 66 fL and a Mono (3 h) of 6%. It also gave a Neu (3 h) of 18.6%, a PT (3 h) of 12.1 s and a Plat (3 h) of 112.9 x10_4/uL. It also gave an RBC (3 h) of 606.2 x10_4/ul, a Ret (3 h) of 9.2% and a WBC (3 h) of 102.3 x10_2/uL. It also gave a KIDNEY_L (3 h) of 0.9 g, a KIDNEY_R (3 h) of 1 g and a KIDNEY_TOTAL (3 h) of 1.9 g. The LIVER (3 h) was 10.3 g, the A/G (3 h) was 2.3 and the ALP (3 h) was 957.2 IU/L. It also gave an ALT (3 h) of 38.8 IU/L, an AST (3 h) of 70.8 IU/L and a BUN (3 h) of 13.6 mg/dL. It also gave a CRE (3 h) of 0.5 mg/dL, a Ca (3 h) of 10.9 mg/dL and a Cl (3 h) of 104.8 meq/L. It also gave a DBIL (3 h) of 0.08 mg/dL, a GLC (3 h) of 193 mg/dL and an IP (3 h) of 9.3 mg/dL. The K (3 h) was 4.7 meq/L, the LDH (3 h) was 91.8 IU/L and the Na (3 h) was 139.8 meq/L. The PL (3 h) was 133.8 mg/dL, the RALB (3 h) was 3.8 g/dL and the TBIL (3 h) was 0.3 mg/dL. The TC (3 h) was 73.4 mg/dL, the TG (3 h) was 58.4 mg/dL and the TP (3 h) was 5.4 g/dL. For the same compound, the gamma-GTP (3 h) was 1.2 IU/L, the TERMINAL_BW (6 h) was 216 g and the APTT (6 h) was 16.4 s. For the same compound, the Bas (6 h) was 0%, the Eos (6 h) was 0.6% and the Fbg (6 h) was 217.8 mg/dL. The Hb (6 h) was 13.3 g/dL, the Ht (6 h) was 39.8% and the Lym (6 h) was 70%. For the same compound, the MCH (6 h) was 22.2 pg, the MCHC (6 h) was 33.6% and the MCV (6 h) was 66.2 fL. The Mono (6 h) was 8.6%, the Neu (6 h) was 20.8% and the PT (6 h) was 11.2 s. For the same compound, the Plat (6 h) was 109.8 x10_4/uL, the RBC (6 h) was 600.6 x10_4/ul and the Ret (6 h) was 9.3%. The WBC (6 h) was 102.1 x10_2/uL, the KIDNEY_L (6 h) was 1 g and the KIDNEY_R (6 h) was 1 g. For the same compound, the KIDNEY_TOTAL (6 h) was 2 g, the LIVER (6 h) was 9.7 g and the A/G (6 h) was 1.8. For the same compound, the ALP (6 h) was 849.4 IU/L, the ALT (6 h) was 32.8 IU/L and the AST (6 h) was 72 IU/L. The BUN (6 h) was 13 mg/dL, the CRE (6 h) was 0.6 mg/dL and the Ca (6 h) was 10.8 mg/dL. It also gave a Cl (6 h) of 105.6 meq/L, a DBIL (6 h) of 0 mg/dL and a GLC (6 h) of 191 mg/dL. It also gave an IP (6 h) of 9.5 mg/dL, a K (6 h) of 4.6 meq/L and an LDH (6 h) of 73.2 IU/L. The Na (6 h) was 140.2 meq/L, the PL (6 h) was 131.4 mg/dL and the RALB (6 h) was 3.4 g/dL. It also gave a TBIL (6 h) of 0.4 mg/dL, a TC (6 h) of 71.8 mg/dL and a TG (6 h) of 63.4 mg/dL. It also gave a TP (6 h) of 5.2 g/dL, a gamma-GTP (6 h) of 1.4 IU/L and a TERMINAL_BW (9 h) of 212.7 g. The APTT (9 h) was 16.6 s, the Bas (9 h) was 0% and the Eos (9 h) was 1.2%. It also gave a Fbg (9 h) of 232.6 mg/dL, a Hb (9 h) of 13 g/dL and a Ht (9 h) of 38.7%. For the same compound, the Lym (9 h) was 59.6%, the MCH (9 h) was 22.1 pg and the MCHC (9 h) was 33.7%. For the same compound, the MCV (9 h) was 65.6 fL, the Mono (9 h) was 4.2% and the Neu (9 h) was 35.2%. It also gave a PT (9 h) of 11.2 s, a Plat (9 h) of 112.1 x10_4/uL and an RBC (9 h) of 589.8 x10_4/ul. It also gave a Ret (9 h) of 10.3%, a WBC (9 h) of 124.2 x10_2/uL and a KIDNEY_L (9 h) of 1 g. For the same compound, the KIDNEY_R (9 h) was 1 g, the KIDNEY_TOTAL (9 h) was 2 g and the LIVER (9 h) was 8.7 g. The A/G (9 h) was 1.9, the ALP (9 h) was 803.6 IU/L and the ALT (9 h) was 33.6 IU/L. For the same compound, the AST (9 h) was 69 IU/L, the BUN (9 h) was 10.4 mg/dL and the CRE (9 h) was 0.5 mg/dL. The Ca (9 h) was 10.9 mg/dL, the Cl (9 h) was 105.8 meq/L and the DBIL (9 h) was 0.024 mg/dL. The GLC (9 h) was 196.8 mg/dL, the IP (9 h) was 9.7 mg/dL and the K (9 h) was 4.9 meq/L. For the same compound, the LDH (9 h) was 94 IU/L, the Na (9 h) was 139 meq/L and the PL (9 h) was 143.4 mg/dL. It also gave an RALB (9 h) of 3.5 g/dL, a TBIL (9 h) of 0.4 mg/dL and a TC (9 h) of 89.6 mg/dL. The TG (9 h) was 33.8 mg/dL, the TP (9 h) was 5.4 g/dL and the gamma-GTP (9 h) was 1.8 IU/L. It also gave a TERMINAL_BW (24 h) of 227.8 g, an APTT (24 h) of 16.9 s and a Bas (24 h) of 0%. The Eos (24 h) was 1.4%, the Fbg (24 h) was 242.2 mg/dL and the Hb (24 h) was 13.1 g/dL. The Ht (24 h) was 39.2%, the Lym (24 h) was 77.8% and the MCH (24 h) was 21.8 pg. For the same compound, the MCHC (24 h) was 33.5%, the MCV (24 h) was 65.1 fL and the Mono (24 h) was 6%. It also gave a Neu (24 h) of 14.6%, a PT (24 h) of 11.5 s and a Plat (24 h) of 125.6 x10_4/uL. The RBC (24 h) was 602.2 x10_4/ul, the Ret (24 h) was 9.2% and the WBC (24 h) was 76.2 x10_2/uL. The KIDNEY_L (24 h) was 1 g, the KIDNEY_R (24 h) was 1 g and the KIDNEY_TOTAL (24 h) was 1.9 g. For the same compound, the LIVER (24 h) was 11.2 g, the A/G (24 h) was 1.8 and the ALP (24 h) was 977.2 IU/L. For the same compound, the ALT (24 h) was 31.4 IU/L, the AST (24 h) was 61.4 IU/L and the BUN (24 h) was 19.4 mg/dL. For the same compound, the CRE (24 h) was 0.5 mg/dL, the Ca (24 h) was 11.3 mg/dL and the Cl (24 h) was 104 meq/L. For the same compound, the DBIL (24 h) was 0.01 mg/dL, the GLC (24 h) was 209 mg/dL and the IP (24 h) was 8.4 mg/dL. For the same compound, the K (24 h) was 4.5 meq/L, the LDH (24 h) was 86 IU/L and the Na (24 h) was 139.8 meq/L. The PL (24 h) was 156.6 mg/dL, the RALB (24 h) was 3.7 g/dL and the TBIL (24 h) was 0.3 mg/dL. For the same compound, the TC (24 h) was 88.2 mg/dL, the TG (24 h) was 101 mg/dL and the TP (24 h) was 5.9 g/dL. It also gave a gamma-GTP (24 h) of 1 IU/L.
